The text below walks through data of patent publication US5534496A, “Methods and compositions to enhance epithelial drug transport” (University of Southern California, priority 1994, dated 1996).

“Also recorded” adds a separate entry of the source. Where a SMILES comes first, the peptide text is derived from it. [ ]: non-standard residue; d: D form. The star is where a group is joined. X1 = O=C(OCc1ccc(/N=N/c2ccccc2)cc1)*

Series [1] deals with isolated segments of duodenum, jejunum, ileum, ascending colon, descending colon, and rectum. In words: Penetration across isolated intestinal segments in modified Ussing chamber. Format: in vitro ADME, albino rabbit. The conditions noted are these: for penetration relative to atenolol, timolol and propranolol: all intestinal segments, all at 3 mM; for penetration: descending colon. The procedure: The penetration of Pz-peptide across the isolated segments of duodenum, jejunum, ileum, ascending colon, descending colon, and rectum of the albino rabbit was evaluated in the modified Ussing chamber. Solution of Pz-peptide at concentrations of 1, 3, and 5 mM were prepared in 5% hydroxypropyl β-cyclodextrin, which was found not to affect either collagenase activity or integrity of the intestinal segments. Periodically up until 240 min, a 50 μl aliquot was collected from the serosal side and injected directly into the HPLC. The apparent permeability coefficient Papp, was calculated using methods well known to one skilled in the art. Papp is defined as the flux of any solute transported across a given membrane per unit area normalized to the concentration applied (see pages 72-73 from the text by W. D. Stein entitled, "Transport and Diffusion A Cross Cell Membranes").

The nature of series [2]: Degradation in intestinal homogenates. Format: in vitro ADME. The conditions noted are these: 0.5 mM; various intestinal homogenates. The source says: Key: .quadrature., Pz-Pro-Leu; , Pro-Leu.
Series [3] deals with collagenase-like activity. Nature of the series: Collagenase activity (Pz-peptide hydrolysis) in homogenates and subcellular fractions of gastrointestinal mucosa. To be noted: albino rabbit intestinal segments. It counts as in vitro ADME. The procedure:
Collagenase activity in homogenates and subcellular fractions of the gastrointestinal mucosa of the albino rabbit was determined by incubating 30 μl a homogenate or subcellular fraction with 20 μl of a Pz-peptide solution in 11% ethanol for up to 60 min. The subcellular fractions were the cytosolic and membrane fractions, and the concentrations of Pz-peptide ranged from 0.1 to 2 mM. The reaction was stopped by adding 225 μl of acetonitrile to the incubation mixture. Following centrifugation to remove precipitated proteins, an aliquot of the supernatant was injected into the HPLC for assay of the intact peptide and its hydrolytic product, Pz-L-Pro-L-Leu. Collagenase activity was determined from the initial slope of a plot of product concentration vs. time.
Using the procedure described in section A above, collagenase actively for the Pz-peptide was found in both tissue homogenate and subcellular fractions of the intestinal segments of the albino rabbit. Referring to FIG. 1, collagenase-like activity was highest in the descending colon and lowest in the jejunum, there being a 7-fold difference in activity at both high and low substrate concentration. […] About 60% of collagenase-like activity was in the cytosol.

The subject of the next series is Caco2 monolayers. In words: Penetration of peptides across Caco2 monolayers. The conditions noted are these: 5 mM.
The conditions of series [4]: from Betageri and Rogers (1987); cited from earlier work.
The test system of series [5] is human colon carcinoma cell monolayer (Caco2). Nature of the series: Transepithelial electrical resistance (TEER) of Caco2 monolayers. To be noted: 3 mM; prolonged exposure.
Procedure: A 500 ohms·cm^2 transepithelial electrical resistance, TEER, was used for the study.
The experiment was initiated by replacing the mucosal solution with sample solution. The viability of the cell monolayers was measured by TEER before and after exposure to the peptide solution. Five paracellular markers with different molecular radii were used to determine the extent of enhancement.
A further series relates to bacterial collagenase. In words: Hydrolysis by bacterial collagenase. To be noted: 0.04 mg/ml bacterial collagenase.

On to `CC(C)C[C@H](NC(=O)[C@@H]1CCCN1C(=O)OCc1ccc(/N=N/c2ccccc2)cc1)C(=O)O` [Pz-Pro-Leu, Pz-L-Pro-L-Leu], for which the “concentration dependence of penetration” value in series [1] (all intestinal segments studied) is reported as “independent of concentrations”. For the same molecule, in series [1], the “penetration relative to atenolol, timolol and propranolol” value was “penetrated equally well or even better”; the penetration entry is given as “penetrated very well”. Besides, the enzymatic degradation entry in series [2] is on record as “resistant to enzymatic degradation”.
As for `CC(C)C[C@H](NC(=O)[C@@H]1CCCN1C(=O)OCc1ccc(/N=N/c2ccccc2)cc1)C(=O)NCC(=O)N1CCC[C@H]1C(=O)N[C@H](CCCNC(=N)N)C(=O)O` [Pz-peptide, Pz-Pro-Leu-Gly-Pro-D-Arg] (X1-PLGP[dR]-OH), the “rank order of collagenase-like activity (Pz-peptide hydrolysis) in intestinal segments” value in series [3] was “descending colon>ascending colon>rectum>ileum>duodenum>jejunum”. Further, the “concentration dependence of penetration” value in series [1] (1-5 mM, lower G.I. regions) is “increased with increasing peptide concentrations”. Also, the “concentration dependence of transport” value in series [1] (1-5 mM, upper G.I. segments) is “independent of concentrations”. Further, in series [1] (albino rabbit intestinal segments), the “permeability, lower intestine versus upper intestine” value is recorded as “lower intestine was more permeable”. In series [1], the “penetration relative to atenolol, timolol and propranolol” value is recorded as “penetrated equally well or even better”; the penetration entry is reported as “penetrated very well; also recorded: penetrated the second best”. In series [1] (lower intestine), the “rank order of permeability coefficient” value is “rectum>descending colon>ascending colon”. Moreover, the “permeability of duodenum, jejunum and ileum” value in series [1] (upper intestine) is given as “equally permeable”.
As for `CC(C)C[C@H](NC(=O)[C@@H]1CCCN1)C(=O)O` [Pro-Leu, reference compound] (H-Pro-Leu-OH), in series [2], the enzymatic degradation result is on record as “degraded to various extent”. In addition, the “penetration relative to Pz-Pro-Leu” value in the series with Caco2 monolayers is on record as “about 10 times lower”.
With `CC(C)NCC(O)COc1cccc2ccccc12` (stereo not drawn) [propranolol], the “distribution coefficient (DC)” value in series [4] is on record as 1640.
`C=C1[C@@H](C)[C@H]2[C@H](Cc3ccccc3)NC(=O)[C@]23OC(=O)/C=C/[C@H](O)CCC[C@@H](C)C/C=C/[C@H]3[C@@H]1O` [cytochalasin B]: in series [5], the “recovery of TEER” value is on record as “only partial recovery”.
On to `CC(C)C[C@H](NC(=O)[C@@H]1CCCN1)C(=O)N[C@@H](CCC(=O)O)C(=O)N1CCC[C@H]1C(=O)N[C@H](CCCNC(=N)N)C(=O)O` [PLEP^d R, Pro-Leu-Glu-Pro-^d Arg] (H-PLEP[dR]-OH), for which the “susceptibility to collagenase action” value in the series with bacterial collagenase is “not susceptible to collagenase action”.
In the case of `CC(C)(C)NC[C@H](O)COc1nsnc1N1CCOCC1` [timolol], in series [4], the “distribution coefficient (DC)” value is listed as 82.
